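Briefly, cells in 96-well plates were exposed to five compound concentrations for 48 h, and endpoints were estimated by linear interpolation. The concentration for 50% growth inhibition is given as GI50. TGI is the concentration that stops growth completely.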
Columns and labels:
Experiment in all cases: growth of human tumour cells (NCI), 48 h
786-0 renal = tested on: 786-0 renal
MALME-3M melanoma = tested on: MALME-3M melanoma
T-47D breast = tested on: T-47D breast
UO-31 renal = tested on: UO-31 renal
UACC-257 melanoma = tested on: UACC-257 melanoma
MCF7 breast = tested on: MCF7 breast
NCI-H226 lung = tested on: NCI-H226 lung
M14 melanoma = tested on: M14 melanoma
SR leukemia = tested on: SR leukemia
OVCAR-5 ovarian = tested on: OVCAR-5 ovarian
HT29 colon = tested on: HT29 colon
SN12C renal = tested on: SN12C renal
EKVX NSCLC = tested on: EKVX NSCLC
COLO 205 colon = tested on: COLO 205 colon
NCI-H522 lung = tested on: NCI-H522 lung
SK-MEL-28 melanoma = tested on: SK-MEL-28 melanoma
CAKI-1 renal = tested on: CAKI-1 renal
U251 CNS = tested on: U251 CNS
A498 renal = tested on: A498 renal
CCRF-CEM leukemia = tested on: CCRF-CEM leukemia
HOP-62 NSCLC = tested on: HOP-62 NSCLC
RPMI-8226 leukemia = tested on: RPMI-8226 leukemia
HCT-116 colon = tested on: HCT-116 colon
ACHN renal = tested on: ACHN renal
DU-145 prostate = tested on: DU-145 prostate
HCT-15 colon = tested on: HCT-15 colon
UACC-62 melanoma = tested on: UACC-62 melanoma
PC-3 prostate = tested on: PC-3 prostate
MOLT-4 leukemia = tested on: MOLT-4 leukemia
SK-MEL-5 melanoma = tested on: SK-MEL-5 melanoma
SF-268 CNS = tested on: SF-268 CNS
HOP-92 NSCLC = tested on: HOP-92 NSCLC
SF-295 CNS = tested on: SF-295 CNS
K-562 leukemia = tested on: K-562 leukemia
BT-549 breast = tested on: BT-549 breast
SW-620 colon = tested on: SW-620 colon
SNB-19 CNS = tested on: SNB-19 CNS
RXF 393 renal = tested on: RXF 393 renal
SK-MEL-2 melanoma = tested on: SK-MEL-2 melanoma
SF-539 CNS = tested on: SF-539 CNS
SK-OV-3 ovarian = tested on: SK-OV-3 ovarian
MDA-MB-231 breast = tested on: MDA-MB-231 breast
SNB-75 CNS = tested on: SNB-75 CNS
HS 578T breast = tested on: HS 578T breast
HL-60(TB) leukemia = tested on: HL-60(TB) leukemia
OVCAR-8 ovarian = tested on: OVCAR-8 ovarian
HCC-2998 colon = tested on: HCC-2998 colon
OVCAR-3 ovarian = tested on: OVCAR-3 ovarian
OVCAR-4 ovarian = tested on: OVCAR-4 ovarian
NCI-H23 lung = tested on: NCI-H23 lung
LOX IMVI melanoma = tested on: LOX IMVI melanoma
NCI/ADR-RES ovarian = tested on: NCI/ADR-RES ovarian
A549 NSCLC = tested on: A549 NSCLC
MDA-MB-435 = tested on: MDA-MB-435
IGROV1 ovarian = tested on: IGROV1 ovarian
NCI-H460 lung = tested on: NCI-H460 lung
KM12 colon = tested on: KM12 colon
TK-10 renal = tested on: TK-10 renal

Nc1ncnc2c1ncn2C1OC(F)(COS(N)(=O)=O)C(O)C1O (stereo unspecified)
GI50 (786-0 renal): > 100 µM | TGI (786-0 renal): > 100 µM | GI50 (MALME-3M melanoma): > 100 µM | TGI (MALME-3M melanoma): > 100 µM | GI50 (T-47D breast): > 100 µM | TGI (T-47D breast): > 100 µM | GI50 (UO-31 renal): > 100 µM | TGI (UO-31 renal): > 100 µM | GI50 (UACC-257 melanoma): > 100 µM | TGI (UACC-257 melanoma): > 100 µM | GI50 (MCF7 breast): > 100 µM | TGI (MCF7 breast): > 100 µM | GI50 (NCI-H226 lung): > 100 µM | TGI (NCI-H226 lung): > 100 µM | GI50 (M14 melanoma): > 100 µM | TGI (M14 melanoma): > 100 µM | GI50 (SR leukemia): > 100 µM | TGI (SR leukemia): > 100 µM | GI50 (OVCAR-5 ovarian): > 100 µM | TGI (OVCAR-5 ovarian): > 100 µM | GI50 (HT29 colon): > 100 µM | TGI (HT29 colon): > 100 µM | GI50 (SN12C renal): > 100 µM | TGI (SN12C renal): > 100 µM | GI50 (EKVX NSCLC): > 100 µM | TGI (EKVX NSCLC): > 100 µM | GI50 (COLO 205 colon): > 100 µM | TGI (COLO 205 colon): > 100 µM | GI50 (NCI-H522 lung): > 100 µM | TGI (NCI-H522 lung): > 100 µM | GI50 (SK-MEL-28 melanoma): > 100 µM | TGI (SK-MEL-28 melanoma): > 100 µM | GI50 (CAKI-1 renal): > 100 µM | TGI (CAKI-1 renal): > 100 µM | GI50 (U251 CNS): > 100 µM | TGI (U251 CNS): > 100 µM | GI50 (A498 renal): > 100 µM | TGI (A498 renal): > 100 µM | GI50 (CCRF-CEM leukemia): > 100 µM | TGI (CCRF-CEM leukemia): > 100 µM | GI50 (HOP-62 NSCLC): > 100 µM | TGI (HOP-62 NSCLC): > 100 µM | GI50 (RPMI-8226 leukemia): > 100 µM | TGI (RPMI-8226 leukemia): > 100 µM | GI50 (HCT-116 colon): > 100 µM | TGI (HCT-116 colon): > 100 µM | GI50 (ACHN renal): > 100 µM | TGI (ACHN renal): > 100 µM | GI50 (DU-145 prostate): > 100 µM | TGI (DU-145 prostate): > 100 µM | GI50 (HCT-15 colon): > 100 µM | TGI (HCT-15 colon): > 100 µM | GI50 (UACC-62 melanoma): > 100 µM | TGI (UACC-62 melanoma): > 100 µM | GI50 (PC-3 prostate): > 100 µM | TGI (PC-3 prostate): > 100 µM | GI50 (MOLT-4 leukemia): > 100 µM | TGI (MOLT-4 leukemia): > 100 µM | GI50 (SK-MEL-5 melanoma): > 100 µM | TGI (SK-MEL-5 melanoma): > 100 µM | GI50 (SF-268 CNS): > 100 µM | TGI (SF-268 CNS): > 100 µM | GI50 (HOP-92 NSCLC): 36.3 µM | TGI (HOP-92 NSCLC): > 100 µM | GI50 (SF-295 CNS): > 100 µM | TGI (SF-295 CNS): > 100 µM | GI50 (K-562 leukemia): > 100 µM | TGI (K-562 leukemia): > 100 µM | GI50 (BT-549 breast): > 100 µM | TGI (BT-549 breast): > 100 µM | GI50 (SW-620 colon): > 100 µM | TGI (SW-620 colon): > 100 µM | GI50 (SNB-19 CNS): > 100 µM | TGI (SNB-19 CNS): > 100 µM | GI50 (RXF 393 renal): 97.9 µM | TGI (RXF 393 renal): > 100 µM | GI50 (SK-MEL-2 melanoma): > 100 µM | TGI (SK-MEL-2 melanoma): > 100 µM | GI50 (SF-539 CNS): > 100 µM | TGI (SF-539 CNS): > 100 µM | GI50 (SK-OV-3 ovarian): > 100 µM | TGI (SK-OV-3 ovarian): > 100 µM | GI50 (MDA-MB-231 breast): > 100 µM | TGI (MDA-MB-231 breast): > 100 µM | GI50 (SNB-75 CNS): > 100 µM | TGI (SNB-75 CNS): > 100 µM | GI50 (HS 578T breast): > 100 µM | TGI (HS 578T breast): > 100 µM | GI50 (HL-60(TB) leukemia): > 100 µM | TGI (HL-60(TB) leukemia): > 100 µM | GI50 (OVCAR-8 ovarian): > 100 µM | TGI (OVCAR-8 ovarian): > 100 µM | GI50 (HCC-2998 colon): > 100 µM | TGI (HCC-2998 colon): > 100 µM | GI50 (OVCAR-3 ovarian): > 100 µM | TGI (OVCAR-3 ovarian): > 100 µM | GI50 (OVCAR-4 ovarian): > 100 µM | TGI (OVCAR-4 ovarian): > 100 µM | GI50 (NCI-H23 lung): > 100 µM | TGI (NCI-H23 lung): > 100 µM | GI50 (LOX IMVI melanoma): > 100 µM | TGI (LOX IMVI melanoma): > 100 µM | GI50 (NCI/ADR-RES ovarian): > 100 µM | TGI (NCI/ADR-RES ovarian): > 100 µM | GI50 (A549 NSCLC): > 100 µM | TGI (A549 NSCLC): > 100 µM | GI50 (MDA-MB-435): > 100 µM | TGI (MDA-MB-435): > 100 µM | GI50 (IGROV1 ovarian): > 100 µM | TGI (IGROV1 ovarian): > 100 µM | GI50 (NCI-H460 lung): > 100 µM | TGI (NCI-H460 lung): > 100 µM | GI50 (KM12 colon): > 100 µM | TGI (KM12 colon): > 100 µM | GI50 (TK-10 renal): > 100 µM | TGI (TK-10 renal): > 100 µM
